According to patent US20240067631A1, “PYRAZOLE DERIVATIVES USEFUL AS NAMPT MODULATORS” (Cytokinetics, Inc., priority 2020, published 2024):

Biological target: human NAMPT (Homo sapiens (Human), UniProt P43490)
Assay: Human recombinant enzyme assay (NMN fluorescence biochemical assay)
Settings: 6 nM human NAMPT, 60 min; for AC1.4 Human: concentration of compound that generates 40% higher activity over basal; for EC50: concentration that gives half-maximal activation
Method in brief: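 Recombinant human NAMPT (6 nM) with 2.5 mM ATP, […] PRPP and […] nicotinamide in HEPES pH 7.2 with DTT, CHAPS, NaCl, MgCl2; 60 min at ambient temperature. NMN derivatised with acetophenone/KOH/formic acid, fluorescence read at 355/460 nm. AC1.4 (40% above basal) and EC50 reported.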

human NAMPT, sequence (P43490 whole entry): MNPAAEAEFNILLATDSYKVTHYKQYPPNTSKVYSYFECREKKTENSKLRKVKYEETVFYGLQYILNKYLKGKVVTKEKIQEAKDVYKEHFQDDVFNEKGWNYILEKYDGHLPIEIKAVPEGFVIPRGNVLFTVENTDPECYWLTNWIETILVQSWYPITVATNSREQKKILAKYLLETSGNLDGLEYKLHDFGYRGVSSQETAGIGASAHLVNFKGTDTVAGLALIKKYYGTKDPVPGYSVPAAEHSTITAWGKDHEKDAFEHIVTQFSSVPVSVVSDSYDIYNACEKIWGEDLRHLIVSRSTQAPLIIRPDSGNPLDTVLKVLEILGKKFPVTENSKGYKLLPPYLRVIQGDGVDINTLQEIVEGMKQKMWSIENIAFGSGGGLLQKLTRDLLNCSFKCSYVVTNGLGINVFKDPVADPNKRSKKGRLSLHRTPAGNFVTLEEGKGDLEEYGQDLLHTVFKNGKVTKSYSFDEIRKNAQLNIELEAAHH

Row | SMILES | AC1.4 Human | EC50
1 | Cc1nc(C(=O)N[C@@H](C)c2ccccc2Cl)nc(NCCc2cn[nH]c2)c1C [Compound 99, (S)-4-((2-(1H-pyrazol-4-yl)ethyl)amino)-N-(1-(2-chlorophenyl)ethyl)-5,6-dimethylpyrimidine-2-carboxamide] | 1.5915 µM | 20 µM
2 | Cc1nc(C(=O)N2CC(C(F)(F)F)C2)nc(NCCc2cn[nH]c2)c1C [Compound 100, (4-((2-(1H-pyrazol-4-yl)ethyl)amino)-5,6-dimethylpyrimidin-2-yl)(3-(trifluoromethyl)azetidin-1-yl)methanone] | 6.3085 µM | 40.2 µM
3 | COC1(c2ccccc2)CN(C(=O)c2nc(C)c(C)c(NCCc3cn[nH]c3)n2)C1 [Compound 102, (4-((2-(1H-pyrazol-4-yl)ethyl)amino)-5,6-dimethylpyrimidin-2-yl)(3-methoxy-3-phenylazetidin-1-yl)methanone] | 2.0105 µM | 12.9 µM
4 | Cc1nc(C(=O)NC(C)c2cncs2)nc(NCCc2cn[nH]c2)c1C (centres unmarked) [Compound 103, 4-((2-(1H-pyrazol-4-yl)ethyl)amino)-5,6-dimethyl-N-(1-(thiazol-5-yl)ethyl)pyrimidine-2-carboxamide] | 1.6375 µM | 21.5 µM
5 | Cc1nc(C(=O)NCC(C)(O)c2ccccc2)nc(NCCc2cn[nH]c2)c1C (centres unmarked) [Compound 104, 4-((2-(1H-pyrazol-4-yl)ethyl)amino)-N-(2-hydroxy-2-phenylpropyl)-5,6-dimethylpyrimidine-2-carboxamide] | 1.6495 µM | 11.3 µM
6 | Cc1nc(C(=O)NCc2n[nH]c3ccccc23)nc(NCCc2cn[nH]c2)c1C [Compound 105, N-((1H-indazol-3-yl)methyl)-4-((2-(1H-pyrazol-4-yl)ethyl)amino)-5,6-dimethylpyrimidine-2-carboxamide] | 1.669 µM | 2.52 µM
7 | CCCN(CCc1cn[nH]c1)c1nc(C(N)=O)nc(C)c1C [Compound 106, 4-((2-(1H-pyrazol-4-yl)ethyl)(propyl)amino)-5,6-dimethylpyrimidine-2-carboxamide] | 1.7115 µM | 32.7 µM

Other lines, results leading:

Row | AC1.4 Human | EC50 | SMILES
8 | 2.339 µM | 14 µM | CCC1(O)CN(C(=O)c2nc(C)c(C)c(NCCc3cn[nH]c3)n2)C1 [Compound 107, (4-((2-(1H-pyrazol-4-yl)ethyl)amino)-5,6-dimethylpyrimidin-2-yl)(3-ethyl-3-hydroxyazetidin-1-yl)methanone]
9 | 1.7855 µM | 18.1 µM | Cc1nc(C(=O)NC(C)c2ncco2)nc(NCCc2cn[nH]c2)c1C (centres unmarked) [Compound 108, 4-((2-(1H-pyrazol-4-yl)ethyl)amino)-5,6-dimethyl-N-(1-(oxazol-2-yl)ethyl)pyrimidine-2-carboxamide]
10 | 1.933 µM | 11.2 µM | Cc1nc(C(=O)N[C@H](C)c2cncc(F)c2)nc(NCCc2cn[nH]c2)c1C [Compound 109, (R)-4-((2-(1H-pyrazol-4-yl)ethyl)amino)-N-(1-(5-fluoropyridin-3-yl)ethyl)-5,6-dimethylpyrimidine-2-carboxamide]
11 | 1.9815 µM | 16.2 µM | Cc1nc(C(=O)NC(C)c2ccncc2F)nc(NCCc2cn[nH]c2)c1C (centres unmarked) [Compound 110, 4-((2-(1H-pyrazol-4-yl)ethyl)amino)-N-(1-(3-fluoropyridin-4-yl)ethyl)-5,6-dimethylpyrimidine-2-carboxamide]
12 | 1.9995 µM | 18.5 µM | Cc1nc(C(=O)NCC(F)(F)c2ccccc2)nc(NCCc2cn[nH]c2)c1C [Compound 111, 4-((2-(1H-pyrazol-4-yl)ethyl)amino)-N-(2,2-difluoro-2-phenylethyl)-5,6-dimethylpyrimidine-2-carboxamide]
13 | 2.084 µM | 2.97 µM | Cc1nc(C(=O)N[C@H](C)c2cc3ccccc3o2)nc(NCCc2cn[nH]c2)c1C [Compound 112, (R)-4-((2-(1H-pyrazol-4-yl)ethyl)amino)-N-(1-(benzofuran-2-yl)ethyl)-5,6-dimethylpyrimidine-2-carboxamide]
